According to PubChem BioAssay (NCI):
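How tested: cells in 96-well plates exposed to compound for 48 hours at five concentrations. GI50: concentration for 50% inhibition of growth. At the TGI there is no net growth.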

What was measured:
Assay in all cases: NCI tumour cell line growth inhibition, 48 h
[1] = tested on: NCI-H460 lung
[2] = tested on: HL-60(TB) leukemia
[3] = tested on: DLD-1 colon
[4] = tested on: DMS 273 small cell lung
[5] = tested on: HOP-92 NSCLC
[6] = tested on: TK-10 renal
[7] = tested on: CCRF-CEM leukemia
[8] = tested on: DMS 114 small cell lung
[9] = tested on: RPMI-8226 leukemia
[10] = tested on: BT-549 breast
[11] = tested on: DU-145 prostate

Compound `N#Cc1ccc(Sc2nc3ccccc3[nH]2)cc1` has a TGI [1] of over 100 µM, a TGI [2] of over 100 µM and a TGI [3] of over 100 µM. For the same compound, the TGI [4] was over 100 µM, the TGI [5] was over 100 µM and the TGI [6] was over 100 µM. The TGI [7] was over 100 µM and the TGI [8] was over 100 µM.
For `CCOC(=O)C1(C)CCC(C(C(=O)O)C(=O)O)CC1=O` (centres undefined), the TGI [1] was over 100 µM, the TGI [2] was over 100 µM and the TGI [3] was over 100 µM. For the same compound, the TGI [4] was over 100 µM, the TGI [9] was over 100 µM and the TGI [5] was over 100 µM. The TGI [6] was over 100 µM, the TGI [7] was over 100 µM and the TGI [8] was over 100 µM.
In the case of `Nc1nc(=S)c2c(ncn2CCO)[nH]1`, the TGI [1] is reported as over 100 µM, the TGI [2] is reported as over 100 µM and the TGI [3] is reported as over 100 µM. It also gave a TGI [4] of over 100 µM, a TGI [9] of over 100 µM and a TGI [5] of over 100 µM. The TGI [6] was over 100 µM, the TGI [7] was over 100 µM and the TGI [8] was over 100 µM.
In the case of `CCOC(=O)C1=C(NC)OCC1=O`, the TGI [1] is reported as over 100 µM, the TGI [2] is reported as over 100 µM and the TGI [4] is reported as over 100 µM. For the same compound, the TGI [9] was over 100 µM, the TGI [5] was over 100 µM and the TGI [6] was over 100 µM. For the same compound, the TGI [7] was over 100 µM and the TGI [8] was over 100 µM.
Compound `c1ccc(C(c2ccccc2)c2ccccn2)cc1` has a TGI [1] of over 100 µM, a TGI [3] of over 100 µM and a TGI [4] of over 100 µM. The TGI [9] was over 100 µM, the TGI [6] was over 100 µM and the TGI [7] was over 100 µM. It also gave a TGI [8] of over 100 µM.
`COc1cc(/C=C/c2csnn2)cc(OC)c1OC` gave a TGI [1] of over 100 µM, a TGI [2] of over 100 µM and a TGI [3] of over 100 µM. It also gave a TGI [9] of over 100 µM, a TGI [5] of over 100 µM and a TGI [6] of over 100 µM. The TGI [7] was over 100 µM and the TGI [8] was over 100 µM.
Compound `CC(C)Cc1ccc(C(C)/C=C2\CCC(CN(C)C)C2=O)cc1` (centres undefined) has a TGI [1] of 45.8 µM, a TGI [2] of 26.7 µM and a TGI [10] of 31.1 µM. For the same compound, the TGI [3] was 40 µM, the TGI [9] was 9.94 µM and the TGI [5] was 39.1 µM. For the same compound, the TGI [6] was 18.9 µM, the TGI [7] was 23.4 µM and the TGI [8] was 46.1 µM. The TGI [11] was 23.6 µM.
For `CCCC(=O)CC(C)C(=O)C(=O)NC12CC3CC(CC(C3)C1)C2` (centres undefined), the TGI [1] was over 100 µM, the TGI [2] was over 100 µM and the TGI [3] was over 100 µM. It also gave a TGI [4] of over 100 µM, a TGI [9] of over 100 µM and a TGI [5] of over 100 µM. The TGI [6] was over 100 µM and the TGI [7] was over 100 µM.
For `COc1ccc(/C=C2\C(=O)N(NC(C)=O)c3ccccc32)cc1`, the TGI [1] was over 100 µM, the TGI [3] was over 100 µM and the TGI [4] was over 100 µM. For the same compound, the TGI [9] was over 100 µM, the TGI [5] was over 100 µM and the TGI [6] was over 100 µM. For the same compound, the TGI [7] was over 100 µM and the TGI [8] was over 100 µM.
Compound `CNCc1ccc(-c2cc(-c3nc(-c4ccc(S(=O)(=O)C(C)C)cc4)cnc3N)on2)cc1` has a GI50 [1] of 0.322 µM, a TGI [1] of 1.6 µM and a GI50 [2] of 1.35 µM. For the same compound, the TGI [2] was 10.6 µM, the GI50 [10] was 2.04 µM and the TGI [10] was 30.4 µM. It also gave a GI50 [9] of 1.31 µM, a TGI [9] of 8.45 µM and a GI50 [5] of 13.3 µM. The TGI [5] was 30.6 µM, the GI50 [6] was 10.2 µM and the TGI [6] was 22.3 µM. The GI50 [7] was 0.215 µM, the TGI [7] was 3.42 µM and the GI50 [11] was 0.798 µM. The TGI [11] was 5.91 µM.
In the case of `CCCCCCCCCCCCCCNC(=O)Nc1ccc(Cl)c(Cl)c1`, the GI50 [1] is reported as 3.4 µM, the TGI [1] is reported as over 100 µM and the GI50 [2] is reported as 2.59 µM. The TGI [2] was over 40.1 µM, the GI50 [10] was 1.87 µM and the TGI [10] was 6.16 µM. It also gave a GI50 [9] of 1.24 µM, a TGI [9] of 3.26 µM and a GI50 [5] of 2.75 µM. For the same compound, the TGI [5] was 8.65 µM, the GI50 [6] was 2.34 µM and the TGI [6] was 7.4 µM. The GI50 [7] was 2.5 µM, the TGI [7] was 11.1 µM and the GI50 [11] was 3.59 µM. For the same compound, the TGI [11] was over 100 µM.
Work on `O=C1N[C@@H]2CCCC[C@@H]2C12CCCCC2` yielded a TGI [1] of over 100 µM, a TGI [2] of over 100 µM and a TGI [3] of over 100 µM. It also gave a TGI [9] of over 100 µM, a TGI [6] of over 100 µM and a TGI [7] of over 100 µM.
For `C#Cc1ccc(-n2c(/C=C/c3ccc(O)cc3)nc3ncccc3c2=O)cc1`, the GI50 [1] was 3.33 µM, the TGI [1] was 14.1 µM and the GI50 [2] was 3.2 µM. It also gave a TGI [2] of 30 µM, a GI50 [10] of 7.51 µM and a TGI [10] of 87.4 µM. It also gave a GI50 [9] of 3.41 µM, a TGI [9] of over 100 µM and a GI50 [5] of 1.8 µM. The TGI [5] was 17.1 µM, the GI50 [6] was 8.78 µM and the TGI [6] was 68.7 µM. The GI50 [7] was 3.3 µM, the TGI [7] was over 100 µM and the GI50 [11] was 4.1 µM. The TGI [11] was 76.5 µM.
`Cc1cc(Cl)nc(N(CCNc2ccnc3cc(Cl)ccc23)Cc2ccco2)n1` showed a GI50 [1] of 1.84 µM, a TGI [1] of 3.94 µM and a GI50 [2] of 1.65 µM. For the same compound, the TGI [2] was 3.59 µM, the GI50 [10] was 1.66 µM and the TGI [10] was 3.3 µM. The GI50 [9] was 1.76 µM, the TGI [9] was 4.27 µM and the GI50 [5] was 1.2 µM. The TGI [5] was 3.55 µM, the GI50 [6] was 2.62 µM and the TGI [6] was 8.39 µM. For the same compound, the GI50 [7] was 1.92 µM, the TGI [7] was 5.04 µM and the GI50 [11] was 1.9 µM. For the same compound, the TGI [11] was 3.8 µM.
With `CC12OC(=O)C(C#N)C1(C)C1C(=O)CCCC12` (centres undefined) the TGI [1] was over 100 µM, the TGI [2] was over 100 µM and the TGI [3] was over 100 µM. The TGI [4] was over 100 µM, the TGI [9] was over 100 µM and the TGI [6] was over 100 µM. For the same compound, the TGI [7] was over 100 µM and the TGI [8] was over 100 µM.
`CCCCCC(=O)O[C@]1(C(C)=O)CCC2C3CCC4=CC(=O)CC[C@]4(C)C3CC[C@@]21C` (some centres undefined) gave a GI50 [1] of 2.31 µM, a TGI [1] of 8.59 µM and a GI50 [2] of 2.25 µM. For the same compound, the TGI [2] was 4.7 µM, the GI50 [10] was 2.49 µM and the TGI [10] was 4.71 µM. The GI50 [9] was 1.42 µM, the TGI [9] was 4.82 µM and the GI50 [5] was 0.766 µM. The TGI [5] was 3.31 µM, the GI50 [6] was 3.46 µM and the TGI [6] was over 23.7 µM. For the same compound, the GI50 [7] was 2.3 µM, the TGI [7] was 5.83 µM and the GI50 [11] was 3.56 µM. It also gave a TGI [11] of 13.4 µM.
For `CC1NOC(=O)C1N=Nc1ccc(Cl)cc1Cl` (centres undefined), the TGI [1] was 59.5 µM, the TGI [2] was 44.8 µM and the TGI [3] was over 100 µM. The TGI [4] was 56.8 µM, the TGI [5] was 44.3 µM and the TGI [6] was 62.7 µM. For the same compound, the TGI [7] was over 100 µM and the TGI [8] was 53.9 µM.
Work on `Nc1nccc(-c2c(-c3ccc(F)cc3)nn3cc(C(F)(F)F)ccc23)n1` yielded a GI50 [1] of over 25 µM, a TGI [1] of over 25 µM and a GI50 [2] of over 25 µM. For the same compound, the TGI [2] was over 25 µM, the GI50 [10] was over 25 µM and the TGI [10] was over 25 µM. The GI50 [9] was over 25 µM, the TGI [9] was over 25 µM and the GI50 [5] was 5.75 µM. The TGI [5] was over 25 µM, the GI50 [6] was over 25 µM and the TGI [6] was over 25 µM. It also gave a GI50 [7] of over 25 µM, a TGI [7] of over 25 µM and a GI50 [11] of over 25 µM. For the same compound, the TGI [11] was over 25 µM.
With `COCCN(Cc1ccc(F)cc1)c1ccc(CO)c(Cl)c1` the GI50 [1] was 1.9 µM, the TGI [1] was over 43.6 µM and the GI50 [2] was 27.4 µM. The TGI [2] was over 75.4 µM, the GI50 [10] was 40.4 µM and the TGI [10] was over 100 µM. It also gave a GI50 [9] of 17.6 µM, a TGI [9] of over 95.9 µM and a GI50 [5] of 8.16 µM. For the same compound, the TGI [5] was 60.1 µM, the GI50 [6] was 0.271 µM and the TGI [6] was 1.66 µM. The GI50 [7] was 45.2 µM, the TGI [7] was over 100 µM and the GI50 [11] was 70.4 µM. It also gave a TGI [11] of over 100 µM.
In the case of `CC(=O)[CH-]C(=O)c1ccccc1.[C-]#[O+].[C-]#[O+].[Ir]`, the GI50 [1] is reported as over 10 µM, the TGI [1] is reported as over 10 µM and the GI50 [2] is reported as over 100 µM. For the same compound, the TGI [2] was over 100 µM, the GI50 [3] was over 100 µM and the TGI [3] was over 100 µM. The GI50 [9] was over 10 µM, the TGI [9] was over 10 µM and the GI50 [6] was over 100 µM. The TGI [6] was over 100 µM.
